Results reported in patent US20230192699A1, “COMPOUNDS AS CASEIN KINASE INHIBITORS” (GRITSCIENCE BIOPHARMACEUTICALS CO., LTD., priority 2020, published 2023).

Target: wild type CK1δ (Homo sapiens, UniProt P48730)
Assay: CK1δ kinase assay (Kinase-Glo)
Format: biochemical
Settings: 10 μM ATP, 2 nM wild type CK1δ, 85 min at 25° C.; read-out: CK1δ inhibition (IC50)
Description: The CK1δ kinase assay was performed with a buffer (40 μL, pH 7.5) containing 50 mM Tris, 10 mM MgCl2, 1 mM dithiothreitol, 100 μg/mL BSA with 10 μM ATP, 2 nM wild type CK1δ, and 42 μM peptide substrate PLSRTLpSVASLPGL (Flotow et al., 1990) in the presence of 1 μL of a CK1δ inhibitor (e.g., a compound of the present application) or 4% DMSO (e.g., as control). The reaction mixture was incubated for 85 min at 25° C.; detection was carried out as described for the Kinase-Glo Assay (Promega). Luminescent output was measured on the Perkin Elmer Envision plate reader (PerkinElmer, Waltham, Mass.).

Chain of wild type CK1δ (P48730 whole entry): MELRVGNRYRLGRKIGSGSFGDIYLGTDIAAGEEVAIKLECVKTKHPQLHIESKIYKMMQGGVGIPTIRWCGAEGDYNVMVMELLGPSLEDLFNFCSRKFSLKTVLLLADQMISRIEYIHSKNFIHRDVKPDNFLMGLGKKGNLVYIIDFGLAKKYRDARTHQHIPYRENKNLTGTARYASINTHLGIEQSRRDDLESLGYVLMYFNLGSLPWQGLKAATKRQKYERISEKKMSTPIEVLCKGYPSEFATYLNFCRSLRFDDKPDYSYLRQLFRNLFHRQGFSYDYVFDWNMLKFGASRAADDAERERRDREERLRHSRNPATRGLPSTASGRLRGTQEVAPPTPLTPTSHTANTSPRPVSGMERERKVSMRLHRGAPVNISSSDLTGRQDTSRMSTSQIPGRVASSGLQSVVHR

Compound	IC50 [nM]
Fc1ccc(-c2nc3cnccn3c2-c2ccncc2)cc1 [Compound 1-5, 2-(4-fluorophenyl)-3-(pyridin-4-yl)imidazo[1,2-a]pyrazine]	499
Fc1ccc(-c2nc3n(c2-c2ccncc2)CCNC3)cc1 [Compound 1-6, 2-(4-fluorophenyl)-3-(pyridin-4-yl)-5,6,7,8-tetrahydroimidazo[1,2-a]pyrazine]	254
O=C1OCc2nccc(-c3c(-c4ccc(F)cc4)nc4cnccn34)c21 [Compound 1-8, 4-(2-(4-fluorophenyl)imidazo[1,2-a]pyrazin-3-yl)furo[3,4-b]pyridin-5(7H)-one]	> 100000
Fc1ccc(-c2nn3c(c2-c2ccncc2)CN(Cc2ccccc2)CC3)cc1 [Compound 1-12, 5-benzyl-2-(4-fluorophenyl)-3-(pyridin-4-yl)-4,5,6,7-tetrahydropyrazolo[1,5-a]pyrazine]	74.9
Fc1ccc(-c2nn3c(c2-c2ccncc2)CNCC3)cc1 [Compound 1-13, 2-(4-fluorophenyl)-3-(pyridin-4-yl)-4,5,6,7-tetrahydropyrazolo[1,5-a]pyrazine]	67.3
Fc1ccc(-n2nc3c(c2-c2ccncc2)CCCC3)cc1 [Compound 1-16, 2-(4-fluorophenyl)-3-(pyridin-4-yl)-4,5,6,7-tetrahydro-2H-indazole]	9780
Fc1ccc(-c2nn3c(c2-c2ccncc2)COCC3)cc1 [Compound 1-27, 2-(4-fluorophenyl)-3-(pyridin-4-yl)-6,7-dihydro-4H-pyrazolo[5,1-c][1,4]oxazine]	163
C[C@@H]1CNC(=O)c2c(-c3ccncc3)c(-c3ccc(F)cc3)nn21 [Compound 1-44, (R)-2-(4-fluorophenyl)-7-methyl-3-(pyridin-4-yl)-6,7-dihydropyrazolo[1,5-a]pyrazin-4(5H)-one]	1840
C[C@H]1Cn2nc(-c3ccc(F)cc3)c(-c3ccncc3)c2CO1 [Compound 1-45, (S)-2-(4-fluorophenyl)-6-methyl-3-(pyridin-4-yl)-6,7-dihydro-4H-pyrazolo[5,1-c][1,4]oxazine]	370
Fc1ccc(-c2nn3c(c2-c2ccncc2)COCCC3)cc1 [Compound 1-47, 2-(4-fluorophenyl)-3-(pyridin-4-yl)-7,8-dihydro-4H,6H-pyrazolo[5,1-c][1,4]oxazepine]	686
Cn1cc(-c2ccncc2)c(-c2ccc(F)cc2)c1C#N [Compound 3-1, 3-(4-fluorophenyl)-1-methyl-4-(pyridin-4-yl)-1H-pyrrole-2-carbonitrile]	180
Cn1cc(-c2ccncc2)c(-c2ccc(F)cc2)c1C(N)=O [Compound 3-2, 3-(4-fluorophenyl)-1-methyl-4-(pyridin-4-yl)-1H-pyrrole-2-carboxamide]	11100
COC(=O)c1[nH]cc(-c2ccncc2)c1-c1ccc(F)cc1 [Compound 3-4, methyl 3-(4-fluorophenyl)-4-(pyridin-4-yl)-1H-pyrrole-2-carboxylate]	480
COC(=O)c1c(-c2ccc(F)cc2)c(-c2ccncc2)cn1C [Compound 3-5, methyl 3-(4-fluorophenyl)-1-methyl-4-(pyridin-4-yl)-1H-pyrrole-2-carboxylate]	7710
Cn1nc(-c2ccncc2)c(-c2ccc(F)cc2)n1 [Compound 3-6, 4-(5-(4-fluorophenyl)-2-methyl-2H-1,2,3-triazol-4-yl)pyridine]	178
Cn1nnc(-c2ccc(F)cc2)c1-c1ccncc1 [Compound 3-9, 4-(4-(4-fluorophenyl)-1-methyl-1H-1,2,3-triazol-5-yl)pyridine]	21400

More lines, now with the values ahead:

IC50 [nM]	Compound
614	CC(=O)N1CCn2c(nc(-c3ccc(F)cc3)c2-c2ccncc2)C1 [Compound 1-7, 1-(2-(4-fluorophenyl)-3-(pyridin-4-yl)-5,6-dihydroimidazo[1,2-a]pyrazin-7(8H)-yl)ethan-1-one]
81.3	CCC(=O)N1CCn2nc(-c3ccc(F)cc3)c(-c3ccncc3)c2C1 [Compound 1-31, 1-(2-(4-fluorophenyl)-3-(pyridin-4-yl)-6,7-dihydropyrazolo[1,5-a]pyrazin-5(4H)-yl)propan-1-one]
368	CC(C)C(=O)N1CCn2nc(-c3ccc(F)cc3)c(-c3ccncc3)c2C1 [Compound 1-32, 1-(2-(4-fluorophenyl)-3-(pyridin-4-yl)-6,7-dihydropyrazolo[1,5-a]pyrazin-5(4H)-yl)-2-methylpropan-1-one]
177	CC(=O)N1CCn2nc(-c3ccc(F)cc3)c(-c3ccnc(C)c3)c2C1 [Compound 1-33, 1-(2-(4-fluorophenyl)-3-(2-methylpyridin-4-yl)-6,7-dihydropyrazolo[1,5-a]pyrazin-5(4H)-yl)ethan-1-one]
> 100000	CC(=O)N1CCn2nc(-c3ccc(F)cc3)c(-c3cc[n+]([O-])c(C)c3)c2C1 [Compound 1-34, 4-(5-acetyl-2-(4-fluorophenyl)-4,5,6,7-tetrahydropyrazolo[1,5-a]pyrazin-3-yl)-2-methylpyridine-1-oxide]
279	CN1CCC(C(=O)N2CCn3nc(-c4ccc(F)cc4)c(-c4ccncc4)c3C2)CC1 [Compound 1-36, (2-(4-fluorophenyl)-3-(pyridin-4-yl)-6,7-dihydropyrazolo[1,5-a]pyrazin-5(4H)-yl)(1-methylpiperidin-4-yl)methanone]
161	CN1CCn2nc(-c3ccc(F)cc3)c(-c3ccncc3)c2C1 [Compound 1-42, 2-(4-fluorophenyl)-5-methyl-3-(pyridin-4-yl)-4,5,6,7-tetrahydropyrazolo[1,5-a]pyrazine]
963	CC(=O)N1CCn2nc(-c3ccc(F)cc3)c(-c3ccnc(C)n3)c2C1 [Compound 1-51, 1-(2-(4-fluorophenyl)-3-(2-methylpyrimidin-4-yl)-6,7-dihydropyrazolo[1,5-a]pyrazin-5(4H)-yl)ethan-1-one]
3110	CCc1cc(-c2c(-c3ccc(F)cc3)nn3c2CN(C(C)=O)CC3)ccn1 [Compound 1-52, 1-(3-(2-ethylpyridin-4-yl)-2-(4-fluorophenyl)-6,7-dihydropyrazolo[1,5-a]pyrazin-5(4H)-yl)ethan-1-one]
17000	CC(=O)N1CCn2nc(-c3ccc(F)cc3)c(-c3ccnc(C(C)C)c3)c2C1 [Compound 1-53, 1-(2-(4-fluorophenyl)-3-(2-isopropylpyridin-4-yl)-6,7-dihydropyrazolo[1,5-a]pyrazin-5(4H)-yl)ethan-1-one]
800	Nc1cc(-c2c(-c3ccc(F)cc3)nn3c2OCC3)ccn1 [Compound 1-54, 4-(6-(4-fluorophenyl)-2,3-dihydropyrazolo[5,1-b]oxazol-7-yl)pyridin-2-amine]
496	Cc1cc(-c2c(-c3ccc(F)cc3)nn3c2CN(C(=O)C2CCN(C)CC2)CC3)ccn1 [Compound 1-55, (2-(4-fluorophenyl)-3-(2-methylpyridin-4-yl)-6,7-dihydropyrazolo[1,5-a]pyrazin-5(4H)-yl)(1-methylpiperidin-4-yl)methanone]
106	Cc1cc(-c2c(-c3ccc(F)cc3)nn3c2CN(C)CC3)ccn1 [Compound 1-56, 2-(4-fluorophenyl)-5-methyl-3-(2-methylpyridin-4-yl)-4,5,6,7-tetrahydropyrazolo[1,5-a]pyrazine]
723	Nc1cc(-c2c(-c3ccc(F)cc3)nn3c2CNCC3)ccn1 [Compound 1-58, 4-(2-(4-fluorophenyl)-4,5,6,7-tetrahydropyrazolo[1,5-a]pyrazin-3-yl)pyridin-2-amine]
